For 1 compound, Ki results are on record in patent US10106523B2, “Amide compound” (ASTELLAS PHARMA INC., priority 2014, dated 2018).

Each structure is given as a SMILES string.

The test deals with rat EP4 receptor (Rattus norvegicus, UniProt P43114). The experiment in a line: Evaluation test of rat EP4 receptor affinity ([3H]PGE2 binding, membrane fraction of HEK-293 cells). The following applies: 0.3 nmol/L [3H]PGE2, rat EP4 cell membrane fraction, room temperature 1 hour; read-out: Ki value with respect to the rat EP4 receptor. Set-up: expressed in transfected cells; host or cells: HEK-293 (ATCC CRL-1573), transient. As for the experimental part: Test Example 1: Evaluation Test of Rat EP4 Receptor Affinity
Construction of Rat EP4 Receptor Expressing Vector:
A rat EP4 receptor gene (GenBank accession No.: NM_032076.1) was transfected into an expression vector pcDNA3.1-V5-His-TOPO (Invitrogen Inc.).
Transient Expression of Rat EP4 Receptor:
The expression vector of a rat EP4 receptor was transfected into an HEK-293 cell (ATCC No.: CRL-1573). The transfection was carried out according to an appended instruction, using Lipofectoamine (registered trademark) 2000 reagent (Invitrogen Inc.). After the transfection, the cells were cultured in an α-MEM culture medium for 20 to 24 hours.
Preparation of Membrane Fraction:
The culture medium was removed by aspiration, 10 mL of cooled phosphate buffered saline (PBS) was added thereto per 15 cm dish, and the cells were scraped using a cell scraper (Sumitomo Bakelite). […]
[^3H]PGE2 and a cell membrane fraction were diluted with an assay buffer (50 mmol/L HEPES-NaOH, 10 mmol/L MgCl2, pH 7.5), and the test compound and unlabeled PGE2 (Cayman) were diluted with DMSO and the assay buffer. […] The radioactivity was measured using a TopCount (Perkin Elmer). […] The specific binding amount was determined by subtracting the non-specific binding amount from the total binding amount. The Ki value was calculated according to a standard method.

rat EP4 receptor, sequence (P43114 whole entry): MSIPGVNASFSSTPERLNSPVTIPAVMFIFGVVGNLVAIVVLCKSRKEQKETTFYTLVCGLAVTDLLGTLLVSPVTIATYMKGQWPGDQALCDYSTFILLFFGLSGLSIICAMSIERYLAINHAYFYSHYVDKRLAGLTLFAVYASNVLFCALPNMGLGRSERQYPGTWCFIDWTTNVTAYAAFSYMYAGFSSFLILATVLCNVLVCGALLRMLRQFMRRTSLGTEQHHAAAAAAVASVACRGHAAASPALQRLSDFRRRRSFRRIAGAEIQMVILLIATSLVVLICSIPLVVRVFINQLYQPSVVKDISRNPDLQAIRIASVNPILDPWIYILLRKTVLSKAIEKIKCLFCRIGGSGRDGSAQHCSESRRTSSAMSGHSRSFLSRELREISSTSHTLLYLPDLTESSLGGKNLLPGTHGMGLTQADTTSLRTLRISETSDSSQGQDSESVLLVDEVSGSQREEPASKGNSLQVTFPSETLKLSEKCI

Broadly, the Ki is the dissociation constant of the complex between target and ligand, obtained from inhibition or displacement. For `Cc1cc(C(=O)N[C@@H](C)c2ccc(C(=O)O)cc2)n(Cc2ccc(Cl)cc2)n1` [Example 205 in Patent Document 1, reference compound], the Ki worked out at 140 nM.
